{"source": "ChEMBL document CHEMBL4673351", "about": "“3α-Angeloyloxy-ent-kaur-16-en-19-oic Acid Isolated from Wedelia trilobata L. Alleviates Xylene-Induced Mouse Ear Edema and Inhibits NF-κB and MAPK Pathway in LPS-Stimulated Macrophages” (J Nat Prod, 2020)", "key": {"[1]": {"test_system": "RAW264.7", "test": "(§1) Inhibition of NF-kappaB activation in mouse RaW264.7 cells assessed as reduction in LPS-induced NO production after 24 hrs by Griess reagent based assay", "format": "cell-based"}, "[2]": {"test": "as §1", "format": "cell-based", "conditions": "RAW264.7, 24 h"}, "[3]": {"test_system": "RAW264.7", "test": "Inhibition of NF-kappaB activation in mouse RaW264.7 cells assessed as reduction in LPS-induced IL-6 protein expression up to 30 uM after 24 hrs by Western blot analysis", "format": "cell-based", "conditions": "dose microM <=30, time 24.0 hrs"}, "[4]": {"test_system": "RAW264.7", "test": "Inhibition of LPS-induced ROS generation in mouse RAW264.7 cells up to 40 uM after 24 hrs by DCFH-DA staining based fluorescence assay", "format": "functional, cell-based", "conditions": "dose microM <=40, time 24.0 hrs"}, "[5]": {"test_system": "RAW264.7", "test": "Inhibition of LPS-induced mitochondrial membrane potential loss in mouse RAW264.7 cells at 20 uM after 24 hrs by JC-1 staining based fluorescence microscopic method", "format": "functional, cell-based"}, "[6]": {"test_system": "RAW264.7", "test": "Cytotoxicity against mouse RAW264.7 cells assessed as reduction in cell viability up to 80 uM after 24 hrs by MTT assay", "format": "cell-based", "conditions": "raw264.7, 24 h"}, "[7]": {"test_system": "RAW264.7", "test": "Inhibition of LPS-induced iNOS protein expression in mouse RAW264.7 cells up to 30 uM after 24 hrs by Western blot analysis", "format": "functional, cell-based", "conditions": "dose microM <=30, time 24.0 hrs"}, "[8]": {"test_system": "Mus musculus", "test": "Antiinflammatory activity in Kunming mouse assessed as reduction in xylene-induced cell infiltration in ear at 50 mg/kg administered topically pretreated for 30 mins followed by xylene-treatment and measured after 30 mins by H and E staining based microscopic method", "format": "functional, organism-based", "conditions": "time 60.0 min"}, "[9]": {"test_system": "Mus musculus", "test": "Antiinflammatory activity in Kunming mouse assessed as reduction in xylene-induced vasodilation in ear at 50 mg/kg administered topically pretreated for 30 mins followed by xylene-treatment and measured after 30 mins by H and E staining based microscopic method", "format": "functional, organism-based", "conditions": "time 60.0 min"}, "[10]": {"test_system": "RAW264.7", "test": "Inhibition of JNK phosphorylation in LPS-induced mouse RaW264.7 cells up to 30 uM after 24 hrs by Western blot analysis", "conditions": "dose microM <=30, time 24.0 hrs"}, "[11]": {"test_system": "RAW264.7", "test": "Inhibition of LPS-induced COX-2 protein expression in mouse RAW264.7 cells up to 30 uM after 24 hrs by Western blot analysis", "format": "functional, cell-based", "conditions": "dose microM <=30, time 24.0 hrs"}, "[12]": {"test_system": "RAW264.7", "test": "Cytotoxicity against mouse RAW264.7 cells assessed as reduction in cell viability up to 60 uM after 24 hrs in presence of LPS by MTT assay", "format": "cell-based", "conditions": "raw264.7, 24 h"}, "[13]": {"test_system": "RAW264.7", "test": "Inhibition of NF-kappaB phosphorylation in LPS-induced mouse RaW264.7 cells up to 30 uM after 24 hrs by Western blot analysis", "conditions": "dose microM <=30, time 24.0 hrs"}, "[14]": {"test_system": "Mus musculus", "test": "Antiinflammatory activity in Kunming mouse assessed as reduction in xylene-induced ear edema at 25 mg/kg administered topically pretreated for 30 mins followed by xylene-treatment and measured after 30 mins relative to control", "format": "functional", "parameters": "scale not given: the % may be the effect or the level left", "conditions": "time 60 min, 1 h"}, "[15]": {"test_system": "RAW264.7", "test": "(§2) Inhibition of NF-kappaB activation in mouse RaW264.7 cells assessed as reduction in LPS-induced PGE2 production after 24 hrs by ELISA", "format": "cell-based"}, "[16]": {"test": "as §2", "format": "cell-based", "conditions": "RAW264.7, 24 h"}, "[17]": {"target": "MAP kinase p38 (Mus musculus) (UniProt P47811+O08911+Q9WUI1+Q9Z1B7)", "test": "Inhibition of p38 phosphorylation in LPS-induced mouse RaW264.7 cells up to 30 uM after 24 hrs by Western blot analysis", "conditions": "dose microM <=30, time 24.0 hrs"}, "[18]": {"test_system": "RAW264.7", "test": "Inhibition of NF-kappaB activation in mouse RaW264.7 cells assessed as reduction in LPS-induced IL-6 mRNA expression after 24 hrs by qRT-PCR analysis", "format": "cell-based"}, "[19]": {"test_system": "RAW264.7", "test": "Inhibition of LPS-induced iNOS mRNA expression in mouse RAW264.7 cells after 24 hrs by qRT-PCR analysis", "format": "functional, cell-based"}, "[20]": {"test_system": "RAW264.7", "test": "Inhibition of NF-kappaB in mouse RaW264.7 cells assessed as reduction in LPS-induced IkappaBalpha degradation up to 30 uM after 24 hrs by Western blot analysis", "format": "cell-based", "conditions": "dose microM <=30, time 24.0 hrs"}, "[21]": {"test_system": "RAW264.7", "test": "Inhibition of ERK phosphorylation in LPS-induced mouse RaW264.7 cells up to 30 uM after 24 hrs by Western blot analysis", "conditions": "dose microM <=30, time 24.0 hrs"}, "[22]": {"test_system": "RAW264.7", "test": "Inhibition of IKKalpha/beta phosphorylation in LPS-induced mouse RaW264.7 cells up to 30 uM after 24 hrs by Western blot analysis", "conditions": "dose microM <=30, time 24.0 hrs"}, "[23]": {"test_system": "RAW264.7", "test": "Inhibition of NF-kappaB p65 nuclear translocation in LPS-induced mouse RaW264.7 cells at 20 uM after 24 hrs by DAPI staining based Immunofluorescence assay"}, "[24]": {"test_system": "RAW264.7", "test": "Inhibition of NF-kappaB activation in mouse RaW264.7 cells assessed as reduction in LPS-induced TNFalpha mRNA expression after 24 hrs by qRT-PCR analysis", "format": "cell-based"}, "[25]": {"test_system": "RAW264.7", "test": "Inhibition of LPS-induced COX-2 mRNA expression in mouse RAW264.7 cells after 24 hrs by qRT-PCR analysis", "format": "functional, cell-based"}, "[26]": {"test_system": "Mus musculus", "test": "Antiinflammatory activity in Kunming mouse assessed as reduction in xylene-induced ear edema at 50 mg/kg administered topically pretreated for 30 mins followed by xylene-treatment and measured after 30 mins relative to control", "format": "functional", "parameters": "scale not given: the % may be the effect or the level left", "conditions": "time 60 min, 1 h"}, "[27]": {"test_system": "RAW264.7", "test": "Inhibition of NF-kappaB activation in mouse RaW264.7 cells assessed as reduction in LPS-induced TNF-alpha protein expression up to 30 uM after 24 hrs by Western blot analysis", "format": "cell-based", "conditions": "dose microM <=30, time 24.0 hrs"}, "[28]": {"test_system": "Mus musculus", "test": "Antiinflammatory activity in Kunming mouse assessed as reduction in xylene-induced ear edema at 5 mg/kg administered topically pretreated for 30 mins followed by xylene-treatment and measured after 30 mins relative to control", "format": "functional", "parameters": "scale not given: the % may be the effect or the level left", "conditions": "time 60 min, 1 h"}, "[29]": {"test_system": "Mus musculus", "test": "Antiinflammatory activity in Kunming mouse assessed as reduction in xylene-induced cell infiltration in ear at 5 mg/kg administered topically pretreated for 30 mins followed by xylene-treatment and measured after 30 mins by H and E staining based microscopic method", "format": "functional, organism-based", "conditions": "time 60.0 min"}, "[30]": {"test_system": "Mus musculus", "test": "Antiinflammatory activity in Kunming mouse assessed as reduction in xylene-induced vasodilation in ear at 5 mg/kg administered topically pretreated for 30 mins followed by xylene-treatment and measured after 30 mins by H and E staining based microscopic method", "format": "functional, organism-based", "conditions": "time 60.0 min"}}, "note": "pIC50: −log10 of the molar value. Activity calls are given as the source filed them. No cut-off for these calls is given here.", "data": [{"smiles": "C=C1C[C@@]23CC[C@H]4[C@@](C)(CC[C@@H](OC(=O)/C(C)=C\\C)[C@@]4(C)C(=O)O)[C@@H]2CC[C@@H]1C3", "values": [{"measurement": "inhibition", "setting": "[1]", "value": "Dose-dependent effect"}, {"measurement": "pIC50", "setting": "[2]", "value": 4.69}, {"measurement": "inhibition", "setting": "[3]", "value": "Active"}, {"measurement": "inhibition", "setting": "[4]", "value": "Active"}, {"measurement": "inhibition", "setting": "[5]", "value": "Active"}, {"measurement": "Activity", "setting": "[6]", "value": "Non-Toxic"}, {"measurement": "inhibition", "setting": "[7]", "value": "Active"}, {"measurement": "Activity", "setting": "[8]", "value": "Active"}, {"measurement": "Activity", "setting": "[9]", "value": "Active"}, {"measurement": "inhibition", "setting": "[10]", "value": "Active"}, {"measurement": "inhibition", "setting": "[11]", "value": "Active"}, {"measurement": "Activity", "setting": "[12]", "value": "Non-Toxic"}, {"measurement": "inhibition", "setting": "[13]", "value": "Active"}, {"measurement": "Activity", "setting": "[14]", "value": 42.44, "unit": "%"}, {"measurement": "inhibition", "setting": "[15]", "value": "Dose-dependent effect"}, {"measurement": "pIC50", "setting": "[16]", "value": 4.69}, {"measurement": "inhibition", "setting": "[17]", "value": "Active"}, {"measurement": "inhibition", "setting": "[18]", "value": "Dose-dependent effect"}, {"measurement": "inhibition", "setting": "[19]", "value": "Dose-dependent effect"}, {"measurement": "inhibition", "setting": "[20]", "value": "Active"}, {"measurement": "inhibition", "setting": "[21]", "value": "Active"}, {"measurement": "inhibition", "setting": "[22]", "value": "Active"}, {"measurement": "inhibition", "setting": "[23]", "value": "Active"}, {"measurement": "inhibition", "setting": "[24]", "value": "Dose-dependent effect"}, {"measurement": "inhibition", "setting": "[25]", "value": "Dose-dependent effect"}, {"measurement": "Activity", "setting": "[26]", "value": 51.57, "unit": "%"}, {"measurement": "inhibition", "setting": "[27]", "value": "Active"}]}, {"smiles": "C=C1C[C@@]23CC[C@H]4[C@@](C)(CCC[C@@]4(C)C(=O)O)[C@@H]2CC[C@@H]1C3", "note": "[KAURENOIC ACID]", "values": [{"measurement": "pIC50", "setting": "[2]", "value": 4.30}]}, {"smiles": "C[C@]12CCC(=O)C=C1CC[C@@H]1[C@@H]2[C@@H](O)C[C@@]2(C)[C@H]1CC[C@]2(O)C(=O)CO", "note": "[HYDROCORTISONE]", "values": [{"measurement": "Activity", "setting": "[28]", "value": 55.53, "unit": "%"}, {"measurement": "Activity", "setting": "[29]", "value": "Active"}, {"measurement": "Activity", "setting": "[30]", "value": "Active"}]}]}
